Assays:
AIM2 inflammasome = biological target: T1, AIM2 inflammasome (Mus musculus, UniProt Q91VJ1); experiment: AIM2 inflammasome activation assay: IL-1β release, microglia from NLRP3 KO mice, LPS and poly(dA:dT); assay type: cell-based
T1 construct: endogenous in cells; host or cells: primary microglia from NLRP3 KO mice
T1 sequence (Q91VJ1 1-354): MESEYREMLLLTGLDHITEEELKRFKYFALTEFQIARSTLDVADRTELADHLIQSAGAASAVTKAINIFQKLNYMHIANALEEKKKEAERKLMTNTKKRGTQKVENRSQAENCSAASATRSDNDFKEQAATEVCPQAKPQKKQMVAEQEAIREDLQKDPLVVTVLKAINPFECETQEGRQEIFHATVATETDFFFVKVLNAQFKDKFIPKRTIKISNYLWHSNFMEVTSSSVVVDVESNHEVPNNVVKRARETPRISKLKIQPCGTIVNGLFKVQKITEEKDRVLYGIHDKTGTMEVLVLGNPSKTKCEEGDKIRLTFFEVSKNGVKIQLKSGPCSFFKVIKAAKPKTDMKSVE
Description: AIM2, NLRP7, and NLRC4 inflammasomes activation assays. Microglia from NLRP3 KO mice were pre-treated with 100 μM C75, C78, C97, or C77, during one hour. AIM2 inflammasome activation was induced through the addition of 100 ng/ml LPS for 2 hours, followed by transfection of 1 μg poly(dA:dT) using Lipofectamine 2000 during 2 hours, following the manufacturer recommendations. NLRC4 was activated by treatment with 150 ng/ml LPS for 2 hours, before transfection of 1 μg flagellin during 2 hours, using lipofectamine 2000 as transfection reagent. Negative and positive controls were pre-treated with the same DMSO percentage as cells treated with the inhibitors. Negative controls were kept untreated after DMSO addition, while LPS-poly(dA:dT) or LPS-flagellin was added to positive controls for AIM2, and NLRC4 activation, respectively. For activation of the NLRP7 inflammasome different conditions were assessed: treatment of WT microglia cultures with 400 ng/ml fibroblast-stimulating lipopeptide-1 (fsl-1) for 7 hours, priming with 150 ng/ml LPS for 1 hour and treatment with 400 ng/ml fsl-1 for 7 hours, and priming with 150 ng/ml LPS and transfection of 400 ng/ml fsl-1 with lipofectamine. MCC950 was used as a negative control for NLRC4 and AIM-2 inhibition. […]
Cytokine quantification. […] IL-1β precursor and cleaved IL-1β in the FC of mice treated with vehicles, LPS, or C77-LPS was assessed by western blot. […]

[1] = tested on: ASC specks following NLRP3 activation; experiment: ASC speck formation / ASC oligomerization in m-Cerulean ASC labeled macrophages; assay type: cell-based, murine; settings: NLRP3 activation with LPS and ATP or HMGB1 and ATP (FIG. 3F)
Description: m-Cerulean ASC labeled macrophages. NLRP3 Knock Out immortalized murine macrophages, stably expressing m-Cerulean-ASC, and NLRP3-Flag were a kind donation of Prof. Eicke Latz, (Institute of Innate Immunity, University of Bonn, Germany). Murine macrophages were maintained in high glucose DMEM medium supplemented with 10% FBS, 1% sodium pyruvate, and passaged every 2-3 days, before reaching confluence.
For ASC speck formation evaluation, murine macrophages were seeded in 96 well SCREENSTAR black microplates with clear base, 24 hours before stimulation. Then, cells were incubated for 1 hour with different concentrations of the inhibitors, or with the same DMSO volume for positive and negative controls for NLRP3 activation—DMSO-LPS-ATP or only DMSO, respectively. 0.5 μM MCC950 was used as a positive control for inhibition of NLRP3-mediated ASC oligomerization. NLRP3 activation was induced through treatment with 250 ng/ml LPS for 2.5 hours, followed by addition of 4.5 mM ATP for 45 min. Cells were then fixed and counterstained in a single step, as previously described (Stutz, A. et al. ASC Speck Formation as a Readout for Inflammasome Activation. in The Inflammasome (eds. De Nardo, C. M. & Latz, E.) vol. 1040 91-101 (Humana Press, 2013).). For that, a stock solution of DRAQS in formaldehyde was used, being the final concentrations 1% formaldehyde and 2.5 μM DRAQ5.
ASC oligomerization determination. […] ASC specks in cells pretreated with C75, C77, C78, and C97, before NLRP3 activation (as above indicated), were visualized with a widefield Leica DMi8 fluorescence microscope, using the 20× objective. […] For image analysis and speck quantification, ImageJ was used https://imagej.nih.gov/ij/index.html. Speck and nuclei quantification was performed as previously described in Stutz et al. When required (overlapping nuclei), the watershed separation algorithm was used to separate the particles. […] The rate of speck positive cells was calculated by normalizing the number of speck positive cells to the number of nuclei. […]

NLRC4 inflammasome = biological target: T2, NLRC4 inflammasome (Mus musculus, UniProt Q3UP24); experiment: NLRC4 inflammasome activation assay: IL-1β release, microglia from NLRP3 KO mice, LPS and flagellin; assay type: cell-based; settings: FIG. 3A
T2 construct: endogenous in cells; host or cells: primary microglia from NLRP3 KO mice
T2 sequence (Q3UP24 whole entry): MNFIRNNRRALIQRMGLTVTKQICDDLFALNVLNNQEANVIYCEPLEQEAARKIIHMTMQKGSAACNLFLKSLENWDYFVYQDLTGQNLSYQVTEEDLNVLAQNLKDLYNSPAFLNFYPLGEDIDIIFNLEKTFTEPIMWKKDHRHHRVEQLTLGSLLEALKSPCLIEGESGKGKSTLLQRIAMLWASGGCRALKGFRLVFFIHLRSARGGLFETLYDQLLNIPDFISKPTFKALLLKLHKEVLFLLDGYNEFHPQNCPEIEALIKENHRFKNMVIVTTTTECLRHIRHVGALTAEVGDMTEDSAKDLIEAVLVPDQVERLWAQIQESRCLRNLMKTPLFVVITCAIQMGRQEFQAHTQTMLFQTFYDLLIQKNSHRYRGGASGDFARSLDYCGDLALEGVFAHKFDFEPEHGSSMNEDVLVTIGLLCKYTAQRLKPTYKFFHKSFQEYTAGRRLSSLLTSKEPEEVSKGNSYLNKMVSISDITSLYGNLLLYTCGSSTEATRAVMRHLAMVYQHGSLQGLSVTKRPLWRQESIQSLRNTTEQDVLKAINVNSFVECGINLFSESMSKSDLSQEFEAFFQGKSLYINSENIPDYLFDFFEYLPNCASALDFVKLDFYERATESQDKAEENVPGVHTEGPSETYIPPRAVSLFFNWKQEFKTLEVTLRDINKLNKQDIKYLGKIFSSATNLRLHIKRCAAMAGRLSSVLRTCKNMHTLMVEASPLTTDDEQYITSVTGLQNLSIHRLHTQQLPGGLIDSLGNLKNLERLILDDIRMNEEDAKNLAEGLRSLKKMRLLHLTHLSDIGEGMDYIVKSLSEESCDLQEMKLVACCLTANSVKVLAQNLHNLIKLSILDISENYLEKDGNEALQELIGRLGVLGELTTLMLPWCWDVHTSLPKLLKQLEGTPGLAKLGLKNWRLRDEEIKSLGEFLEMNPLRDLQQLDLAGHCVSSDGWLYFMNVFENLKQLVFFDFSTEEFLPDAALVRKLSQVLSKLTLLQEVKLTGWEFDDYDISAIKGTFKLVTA
Description: AIM2, NLRP7, and NLRC4 inflammasomes activation assays. […] AIM2 inflammasome activation was induced through the addition of 100 ng/ml LPS for 2 hours, followed by transfection of 1 μg poly(dA:dT) using Lipofectamine 2000 during 2 hours, following the manufacturer recommendations. NLRC4 was activated by treatment with 150 ng/ml LPS for 2 hours, before transfection of 1 μg flagellin during 2 hours, using lipofectamine 2000 as transfection reagent. Negative and positive controls were pre-treated with the same DMSO percentage as cells treated with the inhibitors. Negative controls were kept untreated after DMSO addition, while LPS-poly(dA:dT) or LPS-flagellin was added to positive controls for AIM2, and NLRC4 activation, respectively. For activation of the NLRP7 inflammasome different conditions were assessed: treatment of WT microglia cultures with 400 ng/ml fibroblast-stimulating lipopeptide-1 (fsl-1) for 7 hours, priming with 150 ng/ml LPS for 1 hour and treatment with 400 ng/ml fsl-1 for 7 hours, and priming with 150 ng/ml LPS and transfection of 400 ng/ml fsl-1 with lipofectamine. MCC950 was used as a negative control for NLRC4 and AIM-2 inhibition. Cells were pretreated with 5 μM MCC950 before LPS addition, and 2 hours later the NLRC4 and AIM-2 activation was induced through addition of their specific activators. Cell supernatants were collected for IL-1β measurement.
Cytokine quantification. IL-1β in cell supernatants and brain tissue samples—after the different treatment groups—was quantified using the Mouse IL-1 beta/IL-1F2 DuoSet ELISA kit (R&D systems), IL-6 in cell culture supernatant was measured through the Mouse IL-6 ELISA kit (ThermoFisher), TNF-α in cell culture supernatants was determined using the Mouse TNF-alpha DuoSet ELISA (R*D systems), and IL-18 in brain tissue was measured through the IL-18 Mouse ELISA Kit (Invitrogen) following the manufacturers' recommended protocol. IL-1β precursor and cleaved IL-1β in the FC of mice treated with vehicles, LPS, or C77-LPS was assessed by western blot. All samples were run in technical duplicates.

Structure (SMILES): O=C(Cn1c(=O)oc2ccccc21)NCc1cncc(-c2ccsc2)c1 [Compound C77]
- inhibition of AIM2-mediated IL-1β release (AIM2 inflammasome): did not inhibit
- concentrations with observable reduction of speck positive cells [1]: ≥ 10 nM
- IC50 (NLRC4 inflammasome): 4.15 ± 1.65 µM

Reference: US20240158386A1, “BENZOXAZOLONE INHIBITORS OF INFLAMMASOMES” (ICAHN SCHOOL OF MEDICINE AT MOUNT SINAI, priority 2021, published 2024)
